Data taken from publication PMC4557804 (Journal of medicinal chemistry, 2015).
Where a name gives a salt, the structure may show the parent alone.

Tests used:
[1] = cited from earlier work
[2] = molecular target: T1, SphK1 (Homo sapiens, UniProt Q9NYA1); assay: biochemical; conditions: read-out: inhibition at SphK1
[3] = molecular target: T2, SphK2 (Homo sapiens, UniProt Q9NRA0); assay: biochemical; conditions: for inhibition at 1 µM: read-out: inhibition at SphK2
T2 sequence (Q9NRA0 1-654): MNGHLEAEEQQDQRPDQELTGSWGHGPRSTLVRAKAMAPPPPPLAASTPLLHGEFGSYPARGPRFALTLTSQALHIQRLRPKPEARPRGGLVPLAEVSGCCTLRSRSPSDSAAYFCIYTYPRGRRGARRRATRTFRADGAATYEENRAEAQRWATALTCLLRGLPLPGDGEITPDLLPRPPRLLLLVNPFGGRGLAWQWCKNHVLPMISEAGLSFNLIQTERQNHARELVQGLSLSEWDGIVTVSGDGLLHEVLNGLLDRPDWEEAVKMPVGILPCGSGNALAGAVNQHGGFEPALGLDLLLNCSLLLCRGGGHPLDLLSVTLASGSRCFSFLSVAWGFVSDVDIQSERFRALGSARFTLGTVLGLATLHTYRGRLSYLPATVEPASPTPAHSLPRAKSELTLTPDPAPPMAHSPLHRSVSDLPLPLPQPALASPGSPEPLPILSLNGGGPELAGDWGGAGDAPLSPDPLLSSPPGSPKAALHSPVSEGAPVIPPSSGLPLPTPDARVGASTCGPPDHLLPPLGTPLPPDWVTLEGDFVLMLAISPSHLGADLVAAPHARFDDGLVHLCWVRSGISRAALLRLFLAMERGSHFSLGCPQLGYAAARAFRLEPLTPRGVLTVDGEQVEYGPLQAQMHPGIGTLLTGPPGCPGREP

[4] = molecular target: T1, SphK1; conditions: screen at 1 μM
[5] = molecular target: T2, SphK2; conditions: screen at 1 μM

T1 sequence (Q9NYA1 whole entry, species assumed): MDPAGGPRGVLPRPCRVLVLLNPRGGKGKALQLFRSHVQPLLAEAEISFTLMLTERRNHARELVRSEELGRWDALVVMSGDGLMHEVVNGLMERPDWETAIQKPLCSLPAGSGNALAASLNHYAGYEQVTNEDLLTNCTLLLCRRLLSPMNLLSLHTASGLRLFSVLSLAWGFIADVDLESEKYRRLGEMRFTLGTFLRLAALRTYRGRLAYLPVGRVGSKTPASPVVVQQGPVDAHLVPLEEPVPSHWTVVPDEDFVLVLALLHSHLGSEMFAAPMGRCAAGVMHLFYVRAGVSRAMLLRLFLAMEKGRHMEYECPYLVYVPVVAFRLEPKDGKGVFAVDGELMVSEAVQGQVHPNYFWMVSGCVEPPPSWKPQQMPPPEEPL

Row | Structure (SMILES) | inhibition at 1 µM [2] | inhibition at 1 µM [3] | inhibitory activity at SphK1 [4] | inhibitory activity at SphK2 [5] | further results
1 | O=C(NCc1ccncc1)C12CC3CC(C1)CC(c1ccc(Cl)cc1)(C3)C2 [ABC294640] | – | – | – | – | S1P levels in vivo [1]: decreased
2 | CCCCCCCCc1ccc(-c2noc(CNC(=N)N)n2)cc1 [Compound 7a, 1-((3-(4-Octylphenyl)-1,2,4-oxadiazol-5-yl)methyl)guanidine Hydrochloride] | < 20% | < 20% | – | – | –
3 | CCCCCCCCc1ccc(-c2noc(CN(C)C(=N)N)n2)cc1.Cl [Compound 7b, 1-Methyl-1-((3-(4-octylphenyl)-1,2,4-oxadiazol-5-yl)methyl)-guanidine Hydrochloride] | – | – | inactive | inactive | –
4 | CCCCCCCCc1ccc(-c2noc([C@H](C)NC(=N)N)n2)cc1 [Compound 7c, (S)-1-(1-(3-(4-Octylphenyl)-1,2,4-oxadiazol-5-yl)ethyl)-guanidine Hydrochloride] | < 20% | < 20% | – | – | –
5 | CCCCCCCCc1ccc(-c2noc([C@@H](NC(=N)N)C(C)C)n2)cc1 [Compound 7d, (S)-1-(2-Methyl-1-(3-(4-octylphenyl)-1,2,4-oxadiazol-5-yl)-propyl)guanidine Hydrochloride] | < 20% | < 20% | – | – | –
6 | CCCCCCCCc1ccc(-c2noc([C@H](CO)NC(=N)N)n2)cc1 [Compound 7e, (S)-Amino((2-hydroxy-1-(3-(4-octylphenyl)-1,2,4-oxadiazol-5-yl)ethyl)amino)methaniminium Chloride] | < 20% | < 20% | – | – | –
7 | CCCCCCCCc1ccc(-c2noc([C@@H]3CCN3C(=N)N)n2)cc1 [Compound 7j, (S)-2-(3-(4-Octylphenyl)-1,2,4-oxadiazol-5-yl)azetidine-1-carboximidamide Hydrochloride] | – | – | – | – | Ki [3]: 1000 nM
8 | CCCCCCCCc1ccc(CNC(=O)[C@@H]2CCCN2C(=N)N)cc1.O=C(O)C(F)(F)F [Compound 31, (S)-Amino(2-((4-octylbenzyl)carbamoyl)pyrrolidin-1-yl)-methaniminium 2,2,2-Trifluoroacetate] | – | – | no significant inhibitory effect | no significant inhibitory effect | –

The next lines start with results.

Row | inhibition at 1 µM [2] | inhibition at 1 µM [3] | inhibitory activity at SphK1 [4] | inhibitory activity at SphK2 [5] | Structure (SMILES) | further results
9 | – | – | essentially inactive | essentially inactive | CCCCCCCCc1ccc(-c2noc(C3CN(C(=N)N)C3)n2)cc1.Cl [Compound 20a, Amino(3-(3-(4-octylphenyl)-1,2,4-oxadiazol-5-yl)azetidin-1-yl)methaniminium Chloride] | –
10 | – | – | essentially inactive | essentially inactive | CCCCCCCCc1ccc(-c2noc([C@@H]3CCN(C(=N)N)C3)n2)cc1.Cl [Compound 20b, (R)-Amino(3-(3-(4-octylphenyl)-1,2,4-oxadiazol-5-yl)-pyrrolidin-1-yl)methaniminium Chloride] | –
11 | – | – | inactive | inactive | CCCCCCCCCCc1ccc(NC(=O)[C@@H]2CCCN2C(=N)N)cc1.O=C(O)C(F)(F)F [Compound 29a, (S)-Amino(2-((4-decylphenyl)carbamoyl)pyrrolidin-1-yl)-methaniminium 2,2,2-Trifluoroacetate] | –
12 | – | – | inactive | inactive | CCCCCCCCCCc1ccc(NC(=O)[C@H]2CCCN2C(=N)N)cc1.O=C(O)C(F)(F)F [Compound 29b, (R)-Amino(2-((4-decylphenyl)carbamoyl)pyrrolidin-1-yl)-methaniminium 2,2,2-Trifluoroacetate] | –
